Source: patent publication US11479568B2, “Silacrown ethers, pharmaceutical compositions thereof, and therapeutic applications thereof” (priority 2020, dated 2022)

Key:
[1] = test system: vascular smooth muscle tissue; test: Vascular tissue contractile response (muscle bath, KCl-contracted tissue); format: cell-based, white New Zealand rabbits and human; conditions: cumulative 10^-8 to 10^-5 M, tissue contracted with KCl, FIG. 1 and FIG. 2
Description: Ginsburg (Stanford University Medical School), crown and silacrown ethers in concentrations of 10^−8M, 10^−7 M, 10^−6 M and 10^−5M were prepared fresh daily in deionized water. The 10^−5 M concentrations were used for the preliminary screening of the ionophores for vasoactivity to determine the most promising candidates. The procedures utilized in the removal and preparation of vascular smooth muscle tissue obtained from aorta of white New Zealand rabbits and human hearts from transplant patients are well established and have been successfully utilized by the personnel at Stanford University Medical School (Cardiology Department). A computer interfaced muscle bath system designed by Dr. Robert Ginsburg and associates was used to carry out the experimental procedure. The chambers (32 per system) were filled with standard Tyrode solution (chambers maintain a constant volume of 100 ml) and aerated continuously. The tissues were placed in the chambers and connected to stainless steel hooks to a linear motion transducer and preequilibrated for 1.5 hours at a constant temperature of 37° C. (a tension of 0.5 g was maintained during the pre-equilibration period).
A starting tension of approximately 0.5 g was achieved before adding the agonist ([…] KCl final concentration) to contract the tissues. After the contractions leveled off, the tensions were recorded before and after the crown ethers were added. To test for tissue integrity, 10^−5 M nitroglycerin was added at the end of the experiment (some relaxation should be observed), and the tension was recorded. […]
Accumulative dose response curves were obtained by repeating the previous procedure on both human and rabbit vascular smooth muscle tissues as previously described. However, crown ether concentrations of 10^−8 M, 10^−7 M, 10^−6 M and 10^−5 M were added accumulatively instead of only one dose (10^−5 M was used to screen the crowns) and the tensions recorded for each concentration (before the next concentration of ionophore was added, the contractile tension of the tissue had leveled off).

mice = conditions: reported by Gad et al.; cited from earlier work
[2] = test system: adult albino Sprague-Dawley rats; test: Acute oral toxicity study in rats (GLP); format: in vivo, rat
Text: (§1) No mortality was observed during the study. […] Animals were asymptomatic by day 3. […] Thus, crown ethers and silacrown ethers of similar cavity size behave similarly, but the silacrown ethers have dramatically lower toxicity.

[3] = Acute oral toxicity study in rats (GLP); format: in vivo, rat; conditions: rat, in vivo, adult albino Sprague-Dawley rats
Text: as §1

Row | Molecule | contractile response of vascular smooth muscle tissue (relaxation) [1] | LD50 acute oral toxicity (mice) | also measured
1 | 12-crown-6 [Example 12-crown-6] | similar | – | –
2 | C[Si]1(C)OCCOCCOCCO1 [1,1-dimethylsila-11-crown-4] | similar | – | –
3 | C1COCCOCCOCCO1 [Example 12-crown-4, 12-crown-4] | – | 2830 mg/kg | –
4 | C1COCCOCCOCCOCCO1 [Example 15-crown-5, 15-crown-5] | – | 2100 mg/kg | –
5 | C1CCC2OCCOCCOC3CCCCC3OCCOCCOC2C1 (stereo not drawn) [dicyclohexano-18-crown-6] | – | 176 mg/kg | –
6 | C1CCC2OCCOCCOCCOC3CCCCC3OCCOCCOCCOC2C1 (stereo not drawn) [dicyclohexano-24-crown-8] | – | 75 mg/kg | –
7 | C[Si]1(C)OCCOCCOCCOCCO1 [dimethylsila-14-crown-5] | – | – | acute oral LD50 [2]: 9,900 mg/kg
8 | C[Si]1(C)OCCOCCOCCOC2CCCCC2O1 (stereo not drawn) [dimethylsila-14-cyclohexylcrown-5, Dimethylsila-14-cyclohexylcrown-5] | – | – | LD50 [3]: > 5000 mg/kg
9 | C[Si]1(C)OCCOCCOCCOCCOCCO1 [dimethylsila-17-crown-6] | similar | – | –
